The subject of experiment [1] is Candida albicans. Description: Synergistic antifungal activity against fluconazole-resistant Candida albicans 901 assessed as inhibition of fungal growth in presence of fluconazole by checker board microdilution assay. Format: functional.
Experiment [2] relates to Candida albicans. Description: Synergistic antifungal activity against fluconazole-resistant Candida albicans 904 assessed as inhibition of fungal growth in presence of fluconazole by checker board microdilution assay. Format: functional.
The subject of experiment [3] is Candida albicans. In words: Synergistic antifungal activity against fluconazole-resistant Candida albicans 632 assessed as inhibition of fungal growth in presence of fluconazole by checker board microdilution assay. Format: functional.
Experiment [4] relates to Candida albicans. Description: Synergistic antifungal activity against fluconazole-resistant Candida albicans 100 assessed as inhibition of fungal growth in presence of fluconazole by checker board microdilution assay. Format: functional.
In experiment [5] the test system is Candida albicans. In words: Synergistic antifungal activity against fluconazole-resistant Candida albicans 103 assessed as inhibition of fungal growth in presence of fluconazole by checker board microdilution assay. Format: functional.
The test system of experiment [6] is Candida albicans. Description: Synergistic antifungal activity against fluconazole-resistant Candida albicans 311 assessed as inhibition of fungal growth in presence of fluconazole by checker board microdilution assay. Format: functional.
Experiment [7] concerns Candida albicans. Description: Antifungal activity against fluconazole-resistant Candida albicans 901 assessed as inhibition of fungal growth by checker board microdilution assay. In kind it is functional.
Experiment [8] has as its system Candida albicans. In words: Antifungal activity against fluconazole-resistant Candida albicans 904 assessed as inhibition of fungal growth by checker board microdilution assay. In kind it is functional.
Experiment [9] relates to Candida albicans. In words: Antifungal activity against fluconazole-resistant Candida albicans 632 assessed as inhibition of fungal growth by checker board microdilution assay. In kind it is functional.
Experiment [10] deals with Candida albicans. In words: Antifungal activity against fluconazole-resistant Candida albicans 100 assessed as inhibition of fungal growth by checker board microdilution assay. Format: functional.
The test system of experiment [11] is Candida albicans. Description: Antifungal activity against fluconazole-resistant Candida albicans 103 assessed as inhibition of fungal growth by checker board microdilution assay. Format: functional.
Experiment [12] relates to Candida albicans. In words: Antifungal activity against fluconazole-resistant Candida albicans 311 assessed as inhibition of fungal growth by checker board microdilution assay. Format: functional.
Experiment [13] has as its system Candida albicans. Description: Antibiofilm activity against Candida albicans 904 assessed as inhibition of […] metabolism within the biofilm after 24 hrs by XTT reduction assay. In kind it is functional.
The test system of experiment [14] is Candida albicans. Description: Antibiofilm activity against Candida albicans 904 assessed as inhibition of […] metabolism within the biofilm after 48 hrs by XTT reduction assay. In kind it is functional.
The subject of experiment [15] is Candida albicans. Description: Fungicidal activity against Candida albicans 904 assessed as colony forming at 4 times MIC incubated for 48 hrs by time-kill curve assay. Format: functional.
The subject of experiment [16] is Candida albicans. In words: Reversal of fluconazole mediated azole resistant Candida albicans 904 assessed as upregulation of CDR1 expression at 32 ug/ml by RT-PCR. Format: functional, organism-based. As to conditions: dose 32.0 µg/ml.
Experiment [17] deals with Candida albicans. Description: Reversal of fluconazole mediated azole resistant Candida albicans 904 assessed as upregulation of CDR2 expression at 32 ug/ml by RT-PCR. In kind it is functional, organism-based. As to conditions: dose 32.0 µg/ml.

In brackets after ≈: the same amount, converted by molar mass. Activity calls are given as the source filed them. The calls are words filed in the database; no cut-off is given here.

Regarding `OC(Cn1cncn1)(Cn1cncn1)c1ccc(F)cc1F` [FLUCONAZOLE], the MIC80 in the experiment with Candida albicans [1], in the experiment with Candida albicans [2], in the experiment with Candida albicans [3], in the experiment on Candida albicans [4], in the experiment on Candida albicans [5] and with Candida albicans [6] was greater than 64 µg/mL each time. The MIC80 in the experiment with Candida albicans [7] was greater than 64 µg/mL; with Candida albicans [8] it was greater than 64 µg/mL; with Candida albicans [9], greater than 64 µg/mL; in the experiment on Candida albicans [10], greater than 64 µg/mL; in the experiment on Candida albicans [11], 64 µg/mL; with Candida albicans [12], 64 µg/mL. Further, the values for the MIC50 in the experiment on Candida albicans [13] and in the experiment on Candida albicans [14] were 32 µg/mL (≈ 104 µM) and greater than 64 µg/mL, respectively. The MFC with Candida albicans [15] was greater than 64 µg/mL. Also, the result in the experiment with Candida albicans [16] and with Candida albicans [17] was Active.

For the origin of these results see ChEMBL document CHEMBL5154804, “Species-Selective Targeting of Fungal Hsp90: Design, Synthesis, and Evaluation of Novel 4,5-Diarylisoxazole Derivatives for the Combination Treatment of Azole-Resistant Candidiasis” (J Med Chem, 2022).
